# Values quoted from earlier work, collected in US20190219580A1, “METHODS OF DRUG THERAPY SELECTION FOR BREAST CANCER PATIENTS BASED ON HER2 AND HER3 PATHWAY SUBTYPING” (Nestec S.A., priority 2016, published 2019).
# Like-named read-outs stand apart in the source and are kept apart here.
# Tests used:
# [1] = tested on: tumor xenografts which overexpress HER2; details: in vivo
# breast cancer = details: monotherapy
# [2] = tested on: progressive, locally advanced, or metastatic HER2-positive breast cancer; details: human, in vivo
# [3] = tested on: HER2-positive breast cancer
# [4] = tested on: HER2-positive metastatic and locally advanced breast cancer; details: first-line therapy
# [5] = tested on: HER2-positive, locally advanced disease without previous treatment
# [6] = trastuzumab-refractory patients
SMILES,tumor growth [1],response rate (breast cancer; trastuzumab-naive patients) [%],response rate (breast cancer; [6]) [%],phosphorylation of MAPK and AKT signal transduction pathways (BT474 cell lines),median TTP [2] [months],toxicity in the run-in phase ([3]; with EC-DOC),"pCR rate (no invasive disease in breast) ([3]; with epirubicin, cyclophosphamide followed by docetaxel (EC-DOC), n=620) [%]",overall response rate [4] [%],pCR rate ([5]; patients with low PTEN expression and PI3 kinase mutation) [%],"pCR rate ([5]; single agent first, followed by trastuzumab/docetaxel ×4 cycles) [%]"
CCOc1cc2ncc(C#N)c(Nc3ccc(OCc4ccccn4)c(Cl)c3)c2cc1NC(=O)/C=C/CN(C)C [neratinib],repress tumor growth in a dose-dependent manner,56,26,effectively repressed,,,,,,
CCCCCOC(=O)Nc1nc(=O)n([C@@H]2O[C@H](C)[C@@H](O)[C@H]2O)cc1F [capecitabine],,,,,4.4,,,,,
CS(=O)(=O)CCNCc1ccc(-c2ccc3ncnc(Nc4ccc(OCc5cccc(F)c5)c(Cl)c4)c3c2)o1 [lapatinib],,24,5.1,,,lowered due to toxicity,35,24,87,68
